In the NIST ThermoML archive (doi:10.1016/j.fluid.2004.10.028):

Assay: wn = mass fraction of the nth substance listed
Conditions: Liquid, Capillary tube (Ostwald / Ubbelohde) method

O=S(=O)([O-])[O-].[Na+].[Na+] [sodium sulfate] + O
viscosity [mPa·s]
Conditions | 100 kPa | 10000 kPa | 20000 kPa | 30000 kPa | 40000 kPa
298.15 K, w1 = 0.015 | 0.933 | 0.9335 | 0.9365 | 0.9399 | 0.942
298.15 K, w1 = 0.03 | 0.9746 | 0.9759 | 0.9769 | 0.9799 | 0.9812
298.15 K, w1 = 0.05 | 1.035 | 1.04 | 1.041 | 1.042 | 1.044
298.15 K, w1 = 0.07 | 1.119 | 1.119 | 1.119 | 1.121 | 1.122
298.15 K, w1 = 0.1 | 1.252 | 1.255 | 1.256 | 1.257 | 1.258
298.15 K, w1 = 0.15 | 1.545 | 1.548 | 1.55 | 1.551 | 1.554
298.15 K, w1 = 0.2 | 1.963 | 1.965 | 1.966 | 1.967 | 1.968
303.15 K, w1 = 0.23 | 1.993 | 1.993 | 1.996 | 1.999 | 2.002
303.15 K, w1 = 0.26 | 2.243 | 2.245 | 2.249 | 2.253 | 2.259
323.05 K, w1 = 0.1 | 0.7656 | 0.767 | 0.771 | 0.7745 | 0.778
323.15 K, w1 = 0.03 | 0.5972 | 0.5991 | 0.6012 | 0.6054 | 0.609
323.15 K, w1 = 0.2 | 1.168 | 1.17 | 1.176 | 1.181 | 1.185
323.15 K, w1 = 0.23 | 1.333 | 1.336 | 1.34 | 1.346 | 1.353
323.15 K, w1 = 0.26 | 1.504 | 1.505 | 1.509 | 1.515 | 1.523
323.25 K, w1 = 0.07 | 0.6825 | 0.6846 | 0.6875 | 0.6902 | 0.6935
323.4 K, w1 = 0.15 | 0.9286 | 0.9316 | 0.9354 | 0.9401 | 0.945
323.7 K, w1 = 0.015 | 0.5669 | 0.5741 | 0.5795 | 0.5821 | 0.5835
323.8 K, w1 = 0.05 | 0.6285 | 0.632 | 0.633 | 0.636 | 0.6385
347.2 K, w1 = 0.05 | 0.4434 | 0.4465 | 0.4496 | 0.453 | 0.4587
347.6 K, w1 = 0.07 | 0.4733 | 0.4764 | 0.4795 | 0.4824 | 0.4875
347.9 K, w1 = 0.2 | 0.7892 | 0.7944 | 0.8004 | 0.8053 | 0.811
348.15 K, w1 = 0.015 | 0.395 | 0.3977 | 0.4006 | 0.4038 | –
